Laboratory results: ChEMBL document CHEMBL3885881, “DrugMatrix”

Organism: Rattus norvegicus
Type: toxicity, organism-based, Sprague-Dawley
Details: in vivo, sc, 24 h, route mini-PUMP - SUBCUTANEOUS, time 1 day, vehicle 100 % SALINE; for ABSOLUTE EOSINOPHIL / ABSOLUTE LYMPHOCYTE / ABSOLUTE MONOCYTE / ABSOLUTE SEGMENTED NEUTROPHIL / BASOPHIL / EOSINOPHIL / ERYTHROCYTE COUNT / HEMATOCRIT / HEMOGLOBIN / LEUKOCYTE COUNT / LYMPHOCYTE / MEAN CORPUSCULAR HEMOGLOBIN / MEAN CORPUSCULAR HEMOGLOBIN CONCENTRATION / MEAN CORPUSCULAR VOLUME / MONOCYTE / NEUTROPHIL / NUCLEATED RED BLOOD CELLS / PLATELET COUNT: tissue Blood; for ALANINE AMINOTRANSFERASE / ALBUMIN / ALKALINE PHOSPHATASE / ASPARTATE AMINOTRANSFERASE / BLOOD UREA NITROGEN / CARBON DIOXIDE / CHLORIDE / CHOLESTEROL / CREATININE / GLUCOSE / LACTATE DEHYDROGENASE / LIPASE / PHOSPHORUS / POTASSIUM / SODIUM / TOTAL BILIRUBIN / TOTAL PROTEIN / URIC ACID: tissue Plasma
[1] = 0 mg/kg, vehicle control, dose level Control

Description: DrugMatrix - Regimen: Single

`NC[C@H](O)c1ccc(O)c(O)c1` [NOREPINEPHRINE] was tested, and the “ABSOLUTE EOSINOPHIL” value [1] was 26.17 CELLS/uL, the “ABSOLUTE LYMPHOCYTE” value [1] was 10985.83 CELLS/uL and the “ABSOLUTE MONOCYTE” value [1] was 234.5 CELLS/uL. For the same compound, the “ABSOLUTE SEGMENTED NEUTROPHIL” value [1] was 1753.5 CELLS/uL, the BASOPHIL [1] was 0% and the EOSINOPHIL [1] was 0.17%. For the same compound, the “ERYTHROCYTE COUNT” value [1] was 5.64 x10E6/uL, the HEMATOCRIT [1] was 34.52% and the HEMOGLOBIN [1] was 12.68 G/DL. The “LEUKOCYTE COUNT” value [1] was 13 x10E3/uL, the LYMPHOCYTE [1] was 84.5% and the “MEAN CORPUSCULAR HEMOGLOBIN” value [1] was 22.5 pg. The “MEAN CORPUSCULAR HEMOGLOBIN CONCENTRATION” value [1] was 36.78 G/DL, the “MEAN CORPUSCULAR VOLUME” value [1] was 61.18 fL and the MONOCYTE [1] was 1.83%. The NEUTROPHIL [1] was 13.5%, the “NUCLEATED RED BLOOD CELLS” value [1] was 0.17 /100WBC and the “PLATELET COUNT” value [1] was 679.17 x10E3/uL. For the same compound, the “ALANINE AMINOTRANSFERASE” value [1] was 42.67 u/L, the ALBUMIN [1] was 3.77 G/DL and the “ALKALINE PHOSPHATASE” value [1] was 291.17 u/L. The “ASPARTATE AMINOTRANSFERASE” value [1] was 74.5 u/L, the “BLOOD UREA NITROGEN” value [1] was 15.33 mg/dL and the “CARBON DIOXIDE” value [1] was 30 mmol/L. It also gave a CHLORIDE [1] of 100.83 MEQ/L, a CHOLESTEROL [1] of 65.33 mg/dL and a CREATININE [1] of 0.15 mg/dL. For the same compound, the GLUCOSE [1] was 179.83 mg/dL, the “LACTATE DEHYDROGENASE” value [1] was 162.67 u/L and the LIPASE [1] was 8.5 u/L. It also gave a PHOSPHORUS [1] of 12.2 mg/dL, a POTASSIUM [1] of 5.73 MEQ/L and an SODIUM [1] of 144.7 MEQ/L. For the same compound, the “TOTAL BILIRUBIN” value [1] was 0.15 mg/dL, the “TOTAL PROTEIN” value [1] was 5.87 G/DL and the “URIC ACID” value [1] was 1.93 mg/dL. For the same compound, the “ABSOLUTE EOSINOPHIL” value (1.75 mg/kg, dose level High) was 128.33 CELLS/uL, the “ABSOLUTE LYMPHOCYTE” value (1.75 mg/kg, dose level High) was 11603.67 CELLS/uL and the “ABSOLUTE MONOCYTE” value (1.75 mg/kg, dose level High) was 444.67 CELLS/uL. For the same compound, the “ABSOLUTE SEGMENTED NEUTROPHIL” value (1.75 mg/kg, dose level High) was 3490 CELLS/uL, the BASOPHIL (1.75 mg/kg, dose level High) was 0% and the EOSINOPHIL (1.75 mg/kg, dose level High) was 1%. For the same compound, the “ERYTHROCYTE COUNT” value (1.75 mg/kg, dose level High) was 6.6 x10E6/uL, the HEMATOCRIT (1.75 mg/kg, dose level High) was 39.53% and the HEMOGLOBIN (1.75 mg/kg, dose level High) was 14.47 G/DL. The “LEUKOCYTE COUNT” value (1.75 mg/kg, dose level High) was 15.67 x10E3/uL, the LYMPHOCYTE (1.75 mg/kg, dose level High) was 74% and the “MEAN CORPUSCULAR HEMOGLOBIN” value (1.75 mg/kg, dose level High) was 21.97 pg. The “MEAN CORPUSCULAR HEMOGLOBIN CONCENTRATION” value (1.75 mg/kg, dose level High) was 36.6 G/DL, the “MEAN CORPUSCULAR VOLUME” value (1.75 mg/kg, dose level High) was 60.07 fL and the MONOCYTE (1.75 mg/kg, dose level High) was 3%. For the same compound, the NEUTROPHIL (1.75 mg/kg, dose level High) was 22%, the “NUCLEATED RED BLOOD CELLS” value (1.75 mg/kg, dose level High) was 0 /100WBC and the “PLATELET COUNT” value (1.75 mg/kg, dose level High) was 1126 x10E3/uL. The “ALANINE AMINOTRANSFERASE” value (1.75 mg/kg, dose level High) was 33 u/L, the ALBUMIN (1.75 mg/kg, dose level High) was 4.03 G/DL and the “ALKALINE PHOSPHATASE” value (1.75 mg/kg, dose level High) was 413.33 u/L. The “ASPARTATE AMINOTRANSFERASE” value (1.75 mg/kg, dose level High) was 77.33 u/L, the “BLOOD UREA NITROGEN” value (1.75 mg/kg, dose level High) was 10.33 mg/dL and the “CARBON DIOXIDE” value (1.75 mg/kg, dose level High) was 27.67 mmol/L. It also gave a CHLORIDE (1.75 mg/kg, dose level High) of 101 MEQ/L, a CHOLESTEROL (1.75 mg/kg, dose level High) of 102 mg/dL and a CREATININE (1.75 mg/kg, dose level High) of 0.12 mg/dL. For the same compound, the GLUCOSE (1.75 mg/kg, dose level High) was 268 mg/dL, the “LACTATE DEHYDROGENASE” value (1.75 mg/kg, dose level High) was 247.67 u/L and the LIPASE (1.75 mg/kg, dose level High) was 9 u/L. The PHOSPHORUS (1.75 mg/kg, dose level High) was 14.8 mg/dL, the POTASSIUM (1.75 mg/kg, dose level High) was 6.26 MEQ/L and the SODIUM (1.75 mg/kg, dose level High) was 146.7 MEQ/L. For the same compound, the “TOTAL BILIRUBIN” value (1.75 mg/kg, dose level High) was 0.13 mg/dL, the “TOTAL PROTEIN” value (1.75 mg/kg, dose level High) was 6.4 G/DL and the “URIC ACID” value (1.75 mg/kg, dose level High) was 3.1 mg/dL.
